Emission maximum data for 42 compounds are collected here from the Deep4Chem optical property database.

Structures are written as SMILES.

The nature of the series: solvent given as SMILES.

Regarding `CCCCCCCCCCCCCCCCCCOc1ccc(C#Cc2cc3nc4c(OCCCCCCCCCCCC)cc5c6cc(OCCCCCCCCCCCC)c(OCCCCCCCCCCCC)cc6c6cc(OCCCCCCCCCCCC)c(OCCCCCCCCCCCC)cc6c5c4nc3cc2C#Cc2ccc(OCCCCCCCCCCCCCCCCCC)cc2)cc1`, for the setting “in ClC(Cl)Cl”, the emission maximum came to 660 nm.

The compound `C(=C\c1ccncn1)/c1ccc(-c2ccco2)cc1` showed an emission maximum (in ClCCl) of 401 nm.

`c1ccc(N(c2ccccc2)c2ccc(-c3ccc(-c4ccc(-c5cccs5)c5nsnc45)s3)cc2)cc1` gave an emission maximum (in ClC(Cl)Cl) of 670 nm.

`CC1=[N+]2C(=Cc3c4c(cn3[B-]2(F)F)-c2nc-4c(-c3ccccc3)c3ccc([nH]3)c(-c3ccccc3)c3nc(c(-c4ccccc4)c4ccc([nH]4)c2-c2ccccc2)C=C3)C(C)C1` (stereo not given) returned an emission maximum (in ClCCl) of 693 nm.

`CN1/C(=C/C=C/C2=[N+](CCCCCC(=O)O)c3ccc(S(=O)(=O)[O-])cc3C2(C)C)C(C)(C)c2cc(S(=O)(=O)[O-])ccc21` registered an emission maximum (in O) of 562 nm.

Under “in C1COCCO1”, `COC(=O)c1ccc(/C=C2\C=C(c3ccccc3)NC2=O)cc1` yielded an emission maximum of 544 nm.

Turning to `CCCCCCCCC1(CCCCCCCC)c2cc(-c3ccc(C=C4C(=O)c5ccccc5C4=O)cc3)ccc2-c2ccc(-c3ccc(C=C4C(=O)c5ccccc5C4=O)cc3)cc21`, the emission maximum is, setting by setting: (in C1CCOC1) 531 nm; (in CC(C)=O) 568 nm; (in CCCCCC) 462 nm; (in CS(C)=O) 596 nm; (in Cc1ccccc1) 486 nm; (in ClC(Cl)Cl) 530 nm.

Compound `CCCCn1c(-c2ccc(-c3nnc(-c4ccc(-c5nc6c7ccccc7c7ccccc7c6n5CCCC)cc4)o3)cc2)nc2c3ccccc3c3ccccc3c21` had an emission maximum (in ClCCl) of 451 nm.

As for `CN(C)c1ccc(C#Cc2ccc(-c3cc(N(C)C)c4ccccc4c3)cc2)cc1`, the emission maximum is given as 497.02 nm (in CC#N), 472.33 nm (in CCO) and 457 nm (in ClCCl).

As for `COc1ccc(/C=C/C=C/C2=NC3C(=O)NC(N)=NC3N2[C@H]2C[C@H](O)[C@@H](CO)O2)cc1` (stereo not given in full), the emission maximum reads like this: (in C1COCCO1) 429 nm; (in CC#N) 441 nm; (in CO) 438 nm.

As for `CN(C)c1ccc(-c2ccc(-c3ccc(N(C)C)cc3)c3nc(-c4ccccc4)c(-c4ccccc4)nc23)cc1`, the emission maximum reads like this: (in C1CCOC1) 601 nm; (in CC#N) 646 nm; (in CCCCCC) 538 nm; (in CN(C)C=O) 648 nm; (in Cc1ccccc1) 577 nm; (in ClC(Cl)Cl) 597 nm.

Take `Cc1ccc(C2CC(c3ccc(O)cc3)=NN2c2ccc(S(N)(=O)=O)cc2)cc1` (stereo not given): the emission maximum reads like this: (in C1CCOC1) 417 nm; (in C1COCCO1) 417 nm; (in CC#N) 417 nm; (in CC(C)O) 423 nm; (in CCO) 428 nm; (in CCOC(C)=O) 415 nm. Further, the emission maximum was determined as 422 nm (in CN(C)C=O), 432 nm (in CO), 424 nm (in CS(C)=O) and 449 nm (in O).

Take `CC1CCC(O)(c2ccc(-c3cccs3)s2)CC1` (stereo not given): the emission maximum is, setting by setting: (in C1CCOC1) 412 nm; (in CC#N) 405 nm; (in CCCCCC) 408 nm; (in CCO) 406 nm; (in OCCOCCO) 414 nm; (in c1ccncc1) 416 nm.

Take `CCCCCc1c(C(=O)c2ccc3c4c(cccc24)-c2cccc4c2C3CC=C4)c2ccc3cccc4c5cccc6ccc1c(c65)c2c34` (stereo not given): the emission maximum (in ClCCl) stood at 525 nm.

In the case of `CC(C)(C)n1c(=O)c2cc3ccc4cccc5ccc(c2c1=O)c3c45`, where the note is “in ClC(Cl)Cl”, the emission maximum worked out at 451 nm.

With `O=C1Nc2ccccc2/C1=C/C(=O)c1ccc(O)cc1`, the emission maximum is 384 nm (in C1CCCCC1); 399 nm (in C1COCCO1); 401 nm (in CC#N); 406 nm (in CC(C)(C)O); 407 nm (in CC(C)O); 382 nm (in CCCCCC). Also, the emission maximum is 407 nm (in CCCCO); 398 nm (in CCOC(C)=O); 401 nm (in CN(C)C=O); 408 nm (in CO); 400 nm (in ClCCl); 424 nm (in O).

As to `CC1=CC(C)=[N+]2C1=Cc1c3ccccc3c(C#Cc3ccc(F)cc3)n1[B-]2(F)F`, the emission maximum by setting is: (in CCCCCC) 615 nm; (in CCCCCCCCO) 623 nm; (in CCOC(C)=O) 617 nm; (in CN(C)C=O) 624 nm.

With `Cc1ccc2[nH]c(-c3ccc(-c4ccc(-c5ccc(-c6nc7cc(C)ccc7[nH]6)cc5)c(C)c4)cc3)nc2c1`, the emission maximum (in CN(C)C=O) was determined as 408 nm.

Regarding `c1ccc2c(-c3ccc4sc5ccccc5c4c3)c3ccccc3cc2c1`, the emission maximum is, setting by setting: (in C1CCCCC1) 399.14 nm; (in CC#N) 404.15 nm; (in ClCCl) 405.52 nm.

For `COc1cc(OC)cc(C2=C3C(C)=C(I)C(/C=C/c4c[nH]c5ccccc45)=[N+]3[B-](F)(F)n3c(/C=C/c4c[nH]c5ccccc45)c(I)c(C)c32)c1`, the emission maximum is given as 748 nm (in C1CCOC1), 771 nm (in CS(C)=O) and 735 nm (in ClCCl).

With `CC1(C)C2=[N+](CCCCCC(=O)NCCCNC(=O)CCCCCN3/C(=C/C=C/C=C/C=C/2)C(C)(C)c2cc(S(=O)(=O)[O-])ccc23)c2ccc(S(=O)(=O)[O-])cc21`, the emission maximum worked out at 776 nm (in CO) and 768 nm (in O).

`CN(C)c1ncc2nc(C#N)n(Cc3ccccc3)c2n1`: the emission maximum is 424 nm (in C1COCCO1), 440 nm (in CC#N), 456 nm (in CO) and 429 nm (in ClCCl).

Turning to `COc1ccc(-c2csc(/C(C#N)=C/c3ccc(Cl)cc3)n2)cc1`, the emission maximum (in CC#N) is given as 543 nm.

For `O=C1/C(=C2\Sc3ccc(S(=O)(=O)O)cc3C2=O)Sc2ccc(S(=O)(=O)O)cc21`, the emission maximum runs as follows: (in C1COCCO1) 587 nm; (in CN(C)C=O) 613 nm; (in CO) 629 nm; (in CS(C)=O) 629 nm; (in O) 644 nm.

As for `CC1(C)C(/C=C/c2cc3ccc(O)cc3oc2=O)=[N+](CCCS(=O)(=O)[O-])c2ccc(S(=O)(=O)O)cc21`, the emission maximum by setting is: (in CCO) 648 nm; (in CS(C)=O) 604 nm; (in O) 636 nm.

Take `C(=C\c1nc2ccccc2[nH]1)/c1ccc(/C=C/c2nc3ccccc3[nH]2)cc1`: the emission maximum runs as follows: (in C1CCOC1) 428 nm; (in CC#N) 427 nm; (in CC(C)=O) 427 nm; (in CN(C)C=O) 433 nm; (in CO) 422 nm; (in CS(C)=O) 439 nm.

For `CCCCCCCCCCCCC(CCCCCCCCCC)Cn1c2cc(/C=C/c3nc4ccccc4s3)c3cccc4c5cccc6c(/C=C/c7nc8ccccc8s7)cc1c(c65)c2c34` (stereo not given), the emission maximum is 570 nm (in C1CCCCC1), 581 nm (in CC#N), 582 nm (in Cc1ccccc1) and 585 nm (in ClCCl).

Consider `CC(C)(C)c1ccc2c(c1)c1ncncc1c1c3ccccc3sc21`, for which the emission maximum (in ClCCl) amounted to 414 nm.

In the case of `Oc1ccc2ccccc2c1`, the emission maximum reads like this: (in C1CCCCC1) 350.75 nm; (in O) 351 nm.

Take `Cc1cc(C)n2c1C=C1C(=O)N(C)C(c3ccc([N+](=O)[O-])cc3)=[N+]1[B-]2(F)F`: the emission maximum (in CCCCCC) worked out at 587 nm.

With `COC(=O)/C(C#N)=c1\s/c(=c2/s/c(=C(/C#N)C(=O)OC)c3cc(-c4ccc(F)cc4)sc23)c2sc(-c3ccc(F)cc3)cc12`, the emission maximum (in Cc1ccccc1) is 640 nm.

In the case of `F[B-]1(F)n2c(-c3ccccc3)cc(-c3ccccc3)c2C(c2ccccc2)=C2C(c3ccccc3)=CC(c3ccccc3)=[N+]21`, the emission maximum (in C1CCOC1) is reported as 597 nm.

For the compound `CCOC(=O)c1c2c3c(ccc(F)c3c3cc4ccccc4cc13)N(C)C2=O`, the emission maximum (in CC#N) came out at 415 nm.

Regarding `Cn1cc(/C=C/C(=O)c2ccccc2)c2ccccc21`, the emission maximum (in CC#N) was found to be 419.32 nm and the emission maximum (in CO) is 446.19 nm.

Compound `CC1=C(c2ccc(N(c3ccccc3)c3ccccc3)cc2)C(C)=[N+]2C1=C(c1c(-c3ccccn3)nc3ccccn13)c1c(C)c(-c3ccc(N(c4ccccc4)c4ccccc4)cc3)c(C)n1[B-]2(F)F` registered an emission maximum (in ClCCl) of 709 nm.

For `Cc1cc(C)c([B-]2(c3c(C)cc(C)cc3C)[O+]=P(c3ccccc3)(c3ccccc3)c3cc(C#Cc4ccccc4)sc3-c3sc(C#Cc4ccccc4)cc32)c(C)c1`, where the note is “in C1CCOC1”, the emission maximum was 498 nm.

In turn, `c1ccc(-c2cc(-c3ccc(N4c5ccccc5C(c5ccccc5)(c5ccccc5)c5ccccc54)cn3)nc(-c3ccccc3)n2)cc1` yielded an emission maximum (in Cc1ccccc1) of 480 nm and an emission maximum (in O=P(c1ccccc1)(c1ccccc1)c1ccccc1Oc1ccccc1P(=O)(c1ccccc1)c1ccccc1) of 486 nm.

In the case of `COc1ccc2c(c1)[n+]([O-])nc(N)[n+]2[O-]`, the emission maximum came out at 510 nm (in CC#N) and 542 nm (in O).

Regarding `CCCC1(CCC)c2cc(-c3ccccc3)ccc2-c2ccc(-c3ccc4c(c3)C(CCC)(CCC)c3cc(-c5ccccc5)ccc3-4)cc21`, the emission maximum (in C1CCCCC1) amounted to 387 nm.

For the setting “in ClCCl”, `COC(=O)c1[nH]c(-c2ccc([N+](=O)[O-])cc2)c2nnc3ccc(OC)cc3c12` gave an emission maximum of 549 nm.

As to `O=c1ccc2cc3c(cc2o1)OCC3`, the emission maximum runs as follows: (in CC(C)O) 400 nm; (in CCO) 402 nm; (in CCOCC) 397 nm; (in CO) 405 nm; (in O) 410 nm.

Consider `COC(=O)c1cc(=O)n(C)c2cc(-c3ccccc3)sc12`, for which the emission maximum (in CC#N) came out at 462 nm and the emission maximum (in ClCCl) turned out to be 462 nm.
